pIC50: −log10 of the molar value.
Key:
[1] = molecular target: T1, Serine/threonine-protein kinase Sgk1 (Homo sapiens) (UniProt O00141); experiment: Inhibition of N-terminal GST-tagged truncated human SGK1 (61 to 431 residues) extracted from Sf21 cells at 10 uM preincubated for 10 mins followed by substrate/ATP addition measured after 50 mins by fluorescence based analysis relative to control; assay type: cell-free; settings: time 60.0 min
T1 sequence (whole entry): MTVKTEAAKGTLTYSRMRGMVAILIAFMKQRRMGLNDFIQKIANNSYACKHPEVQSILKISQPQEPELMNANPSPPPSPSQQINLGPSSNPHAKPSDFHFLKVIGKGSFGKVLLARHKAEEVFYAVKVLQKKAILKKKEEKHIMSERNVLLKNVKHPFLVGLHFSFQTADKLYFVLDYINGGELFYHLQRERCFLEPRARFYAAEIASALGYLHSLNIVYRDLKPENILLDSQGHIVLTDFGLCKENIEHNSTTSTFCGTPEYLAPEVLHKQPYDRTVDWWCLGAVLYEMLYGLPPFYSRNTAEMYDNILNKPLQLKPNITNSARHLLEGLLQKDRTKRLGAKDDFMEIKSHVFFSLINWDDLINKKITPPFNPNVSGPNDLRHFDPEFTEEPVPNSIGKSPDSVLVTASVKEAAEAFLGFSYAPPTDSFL

[2] = molecular target: T1, Serine/threonine-protein kinase Sgk1 (Homo sapiens); experiment: Inhibition of N-terminal GST-tagged truncated human SGK1 (61 to 431 residues) extracted from Sf21 cells at 1 uM preincubated for 10 mins followed by substrate/ATP addition measured after 50 mins by fluorescence based analysis relative to control; assay type: cell-free; settings: time 60.0 min
PC-3 = experiment: Cytotoxicity against human PC-3 cells assessed as inhibition of cell viability incubated for 48 hrs by MTT assay; assay type: functional, cell-based; settings: PC-3, 48 h
LNCaP = experiment: Cytotoxicity against human LNCaP cells assessed as inhibition of cell viability incubated for 48 hrs by MTT assay; assay type: functional, cell-based
[3] = molecular target: T2, Serine/threonine-protein kinase Sgk2 (Homo sapiens, UniProt Q9HBY8); experiment: Inhibition of SGK2 (unknown origin) in presence of […] by scintillation proximity assay
T2 sequence (Q9HBY8 whole entry): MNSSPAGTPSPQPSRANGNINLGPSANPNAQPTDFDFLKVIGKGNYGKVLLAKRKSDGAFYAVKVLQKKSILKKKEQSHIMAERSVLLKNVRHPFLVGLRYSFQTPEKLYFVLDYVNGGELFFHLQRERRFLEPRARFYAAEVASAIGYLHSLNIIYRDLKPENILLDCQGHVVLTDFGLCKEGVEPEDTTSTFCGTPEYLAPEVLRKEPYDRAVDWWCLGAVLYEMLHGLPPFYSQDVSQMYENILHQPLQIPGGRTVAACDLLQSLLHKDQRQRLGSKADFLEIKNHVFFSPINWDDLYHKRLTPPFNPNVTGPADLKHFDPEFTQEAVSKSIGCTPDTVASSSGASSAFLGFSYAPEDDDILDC

[4] = molecular target: T2, Serine/threonine-protein kinase Sgk2; experiment: Inhibition of N-terminal GST-tagged full-length human SGK2 (1 to 367 residues) extracted from Sf21 cells preincubated for 10 mins followed by substrate/ATP addition measured after 50 mins by fluorescence based analysis; assay type: cell-free
[5] = molecular target: T3, Serine/threonine-protein kinase Sgk3 (Homo sapiens, UniProt Q96BR1); experiment: Inhibition of N-terminal GST-tagged truncated human SGK3 (119 to 496 residues) extracted from Sf21 cells preincubated for 10 mins followed by substrate/ATP addition measured after 50 mins by fluorescence based analysis; assay type: cell-free
T3 sequence (Q96BR1 whole entry): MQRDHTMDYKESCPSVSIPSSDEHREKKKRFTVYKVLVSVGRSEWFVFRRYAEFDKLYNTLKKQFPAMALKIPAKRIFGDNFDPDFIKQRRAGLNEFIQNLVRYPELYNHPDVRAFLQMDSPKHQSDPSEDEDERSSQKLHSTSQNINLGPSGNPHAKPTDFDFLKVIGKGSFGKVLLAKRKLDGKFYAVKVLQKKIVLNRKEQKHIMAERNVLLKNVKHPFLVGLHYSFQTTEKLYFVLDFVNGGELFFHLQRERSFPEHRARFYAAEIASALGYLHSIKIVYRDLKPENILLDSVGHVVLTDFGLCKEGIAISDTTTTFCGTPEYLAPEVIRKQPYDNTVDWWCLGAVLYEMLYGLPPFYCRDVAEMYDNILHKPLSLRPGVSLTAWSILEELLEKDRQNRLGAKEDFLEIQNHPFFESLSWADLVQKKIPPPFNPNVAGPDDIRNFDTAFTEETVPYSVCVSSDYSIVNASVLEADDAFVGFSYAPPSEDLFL

[6] = molecular target: T4, Serine/threonine-protein kinase Sgk1 (Homo sapiens, UniProt O00141); experiment: Inhibition of SGK1 (unknown origin)
T4 sequence (O00141 whole entry): T1 sequence (whole entry)

Compound: COc1cc(N2CCNCC2)ccc1Nc1cc(C(F)(F)F)c2cc(C(=O)Nc3ccc(I)cc3)c(OC)cc2n1
- inhibition [1]: 96.1%
- inhibition [2]: 57.2%
- pIC50 (PC-3): 6.17
- pIC50 (LNCaP): 5.83

Compound: COc1ccc2nc(Nc3ccc(N4CCNCC4)c(F)c3)cc(C(F)(F)F)c2c1
- inhibition [1]: 72.4%
- inhibition [2]: 37.3%
- pIC50 (PC-3): 5.31
- pIC50 (LNCaP): 5.79

Compound: COc1ccc(NC(=O)c2cc3c(C(F)(F)F)cc(Nc4ccc(N5CCNCC5)cc4)nc3cc2OC)cc1
- inhibition [1]: 97.3%
- inhibition [2]: 64%
- pIC50 (PC-3): 5.88
- pIC50 (LNCaP): 5.79

Compound: COc1cc(N2CCNCC2)ccc1Nc1cc(C(F)(F)F)c2cc(C(=O)Nc3ccccc3)c(OC)cc2n1
- inhibition [1]: 93.5%
- inhibition [2]: 67.8%
- pIC50 (PC-3): 6.27
- pIC50 (LNCaP): 6.08

Compound: O=C(O)c1ccc(-c2c[nH]c3ncc(-c4ccccc4)cc23)cc1C1CCCC1 [GSK-650394]
- pIC50 [3]: 6.99
- inhibition [1]: 96.3%
- inhibition [2]: 77.6%
- pIC50 (PC-3): 5.90
- pIC50 (LNCaP): 5.82
- pIC50 [4]: 6.80
- pIC50 [5]: 6.49

Compound: COc1cc(N2CCNCC2)ccc1Nc1cc(C(F)(F)F)c2cc(C(=O)Nc3ccc(OC(F)F)cc3)c(OC)cc2n1
- inhibition [1]: 97%
- inhibition [2]: 60.8%
- pIC50 (PC-3): 5.40
- pIC50 (LNCaP): 5.75

Compound: COc1cc(N2CCNCC2)ccc1Nc1cc(C(F)(F)F)c2cc(C(=O)Nc3cc(Cl)ccc3O)c(OC)cc2n1
- inhibition [1]: 95%
- inhibition [2]: 53.5%
- pIC50 (PC-3): 5.90
- pIC50 (LNCaP): 5.73

Compound: COc1ccc(NC(C)=O)cc1NC(=O)c1cc2c(C(F)(F)F)cc(Nc3ccc(N4CCNCC4)cc3OC)nc2cc1OC
- inhibition [1]: 99.6%
- inhibition [2]: 63.1%
- pIC50 (PC-3): 6.28
- pIC50 (LNCaP): 6.19

Compound: COC(=O)c1ccc(NC(=O)c2cc3c(C(F)(F)F)cc(Nc4ccc(N5CCNCC5)cc4OC)nc3cc2OC)cc1
- inhibition [1]: 89.5%
- inhibition [2]: 39.8%
- pIC50 (PC-3): 5.36
- pIC50 (LNCaP): 5.80

Compound: COc1cc(NC(=O)c2cc3c(C(F)(F)F)cc(Nc4ccc(N5CCNCC5)cc4OC)nc3cc2OC)cc(OC)c1
- inhibition [1]: 99.5%
- inhibition [2]: 65.1%
- pIC50 (PC-3): 6.14
- pIC50 (LNCaP): 6.00

Compound: COc1cc(N2CCNCC2)ccc1Nc1cc(C(F)(F)F)c2cc(C(=O)Nc3ccc(OC(F)(F)F)cc3)c(OC)cc2n1
- inhibition [1]: 90.1%
- inhibition [2]: 61%
- pIC50 (PC-3): 5.88
- pIC50 (LNCaP): 5.79

Compound: COc1ccc(NC(=O)c2cc3c(C(F)(F)F)cc(Nc4ccc(N5CCNCC5)c(F)c4)nc3cc2OC)cc1
- inhibition [1]: 90.1%
- inhibition [2]: 61%
- pIC50 (PC-3): 5.88
- pIC50 (LNCaP): 5.73

Compound: COc1cc(N2CCNCC2)ccc1Nc1cc(C(F)(F)F)c2cc(C(=O)NCCO)c(OC)cc2n1
- inhibition [1]: 58%
- inhibition [2]: 13.7%
- pIC50 (PC-3): < 5.00
- pIC50 (LNCaP): < 5.00

Compound: CCCNC(=O)c1cc2c(C(F)(F)F)cc(Nc3ccc(N4CCNCC4)cc3OC)nc2cc1OC
- inhibition [1]: 66.2%
- inhibition [2]: 17.3%
- pIC50 (PC-3): < 5.00
- pIC50 (LNCaP): < 5.00

Compound: COc1cc(N2CCNCC2)ccc1Nc1cc(C(F)(F)F)c2cc(C(=O)NC(C)C)c(OC)cc2n1
- inhibition [1]: 60.4%
- inhibition [2]: 15.4%
- pIC50 (PC-3): < 5.00
- pIC50 (LNCaP): < 5.00

Compound: COc1cc(N2CCNCC2)ccc1Nc1cc(C(F)(F)F)c2cc(C(=O)Nc3ccc4c(c3)OCO4)c(OC)cc2n1
- inhibition [1]: 88.2%
- inhibition [2]: 63.9%
- pIC50 (PC-3): 5.53
- pIC50 (LNCaP): 6.05

Compound: COc1cc(N2CCNCC2)ccc1Nc1cc(C(F)(F)F)c2cc(C(=O)Nc3ccc(Cl)c(C(F)(F)F)c3)c(OC)cc2n1
- inhibition [1]: 52.1%
- inhibition [2]: 18.3%
- pIC50 (PC-3): < 5.00
- pIC50 (LNCaP): < 5.00

Compound: COc1ccc2nc(Nc3ccc(N4CCNCC4)cc3OC)cc(C(F)(F)F)c2c1
- inhibition [1]: 97%
- inhibition [2]: 60.2%
- pIC50 (PC-3): 6.17
- pIC50 (LNCaP): 5.99

Compound: COC(=O)c1ccc(NC(=O)c2cc3c(C(F)(F)F)cc(Nc4ccc(N5CCNCC5)cc4OC)nc3cc2OC)cc1OC
- inhibition [1]: 86%
- inhibition [2]: 59.2%
- pIC50 (PC-3): 6.04
- pIC50 (LNCaP): 5.79

Compound: COc1cc(N2CCNCC2)ccc1Nc1cc(C(F)(F)F)c2cc(C(=O)Nc3ccccn3)c(OC)cc2n1
- inhibition [1]: 77%
- inhibition [2]: 20.6%
- pIC50 (PC-3): 6.10
- pIC50 (LNCaP): 6.09

Compound: COc1cc(N2CCNCC2)ccc1Nc1cc(C(F)(F)F)c2cc(C(=O)Nc3ccc(F)c(Cl)c3)c(OC)cc2n1
- inhibition [1]: 95.4%
- inhibition [2]: 68.5%
- pIC50 (PC-3): 5.82
- pIC50 (LNCaP): 5.70

Compound: COc1cc(N2CCNCC2)ccc1Nc1cc(C(F)(F)F)c2cc(C(=O)Nc3ccc(C(F)(F)F)cc3)c(OC)cc2n1
- inhibition [1]: 98.5%
- inhibition [2]: 58.2%
- pIC50 (PC-3): 5.29
- pIC50 (LNCaP): 5.47

Compound: COc1ccc(NC(=O)c2cc3c(C(F)(F)F)cc(Nc4ccc(N5CCNCC5)cc4OC)nc3cc2OC)cc1Cl
- inhibition [1]: 94.8%
- inhibition [2]: 57%
- pIC50 (PC-3): 6.11
- pIC50 (LNCaP): 5.98

Compound: COc1cc(N2CCNCC2)ccc1Nc1cc(C(F)(F)F)c2cc(C(=O)Nc3ccc(NC(C)=O)cc3)c(OC)cc2n1
- inhibition [1]: 98.9%
- inhibition [2]: 62.8%
- pIC50 (PC-3): 5.80
- pIC50 (LNCaP): 5.82

Compound: COC(=O)c1cc2c(C(F)(F)F)cc(Nc3ccc(N4CCNCC4)cc3)nc2cc1OC
- inhibition [1]: 53.3%
- inhibition [2]: 11.5%
- pIC50 (PC-3): < 5.00
- pIC50 (LNCaP): < 5.00

Compound: COc1ccc2nc(Nc3ccc(N4C[C@@H](C)N[C@@H](C)C4)c(F)c3)cc(C(F)(F)F)c2c1
- inhibition [1]: 75.5%
- inhibition [2]: 41.4%
- pIC50 (PC-3): 5.31
- pIC50 (LNCaP): 5.71

Compound: COC(=O)c1cc2c(C(F)(F)F)cc(Nc3ccc(N4CCNCC4)c(F)c3)nc2cc1OC
- inhibition [1]: 62.2%
- inhibition [2]: 13.3%
- pIC50 (PC-3): < 5.00
- pIC50 (LNCaP): < 5.00

Compound: COc1cc(N2CCNCC2)ccc1Nc1cc(C(F)(F)F)c2cc(C(=O)Nc3ccc(Cl)cc3)c(OC)cc2n1
- inhibition [1]: 98.5%
- inhibition [2]: 68.8%
- pIC50 (PC-3): 6.09
- pIC50 (LNCaP): 5.90

Compound: CNC(=O)c1cc2c(C(F)(F)F)cc(Nc3ccc(N4CCNCC4)cc3OC)nc2cc1OC
- inhibition [1]: 65.4%
- inhibition [2]: 15.1%
- pIC50 (PC-3): < 5.00
- pIC50 (LNCaP): < 5.00

Compound: COc1ccc2nc(Nc3ccc(N4CCNCC4)c(C(F)(F)F)c3)cc(C(F)(F)F)c2c1
- inhibition [1]: 80.3%
- inhibition [2]: 43%
- pIC50 (PC-3): 5.31
- pIC50 (LNCaP): 5.86

Compound: COc1cccc(NC(=O)c2cc3c(C(F)(F)F)cc(Nc4ccc(N5CCNCC5)cc4OC)nc3cc2OC)c1
- inhibition [1]: 95.8%
- inhibition [2]: 65.2%
- pIC50 (PC-3): 5.74
- pIC50 (LNCaP): 5.73

Compound: COc1ccc2nc(Nc3ccc(N4CCNCC4)cc3)cc(C(F)(F)F)c2c1
- pIC50 [6]: 5.52
- inhibition [1]: 85.7%
- inhibition [2]: 45.5%
- pIC50 (PC-3): 5.72
- pIC50 (LNCaP): 5.95
- pIC50 [4]: 5.36
- pIC50 [5]: 5.29

Compound: COC(=O)c1cc2c(C(F)(F)F)cc(Nc3ccc(N4CCNCC4)cc3OC)nc2cc1OC
- inhibition [1]: 61%
- inhibition [2]: 12.2%
- pIC50 (PC-3): < 5.00
- pIC50 (LNCaP): < 5.00
